# Results taken from ChEMBL document CHEMBL5465560, “Selectivity Literature for EUbOPEN Chemogenomic Library” (2024).
# Key:
# [1] = biological target: T1, Serine/threonine-protein kinase BRSK1 (Homo sapiens) (UniProt Q8TDC3); assay: Selectivity interaction (Upstate Kinase Profiler service (Millipore)) EUB0000056c BRSK1; settings: at 1 µM
# T1 sequence (whole entry): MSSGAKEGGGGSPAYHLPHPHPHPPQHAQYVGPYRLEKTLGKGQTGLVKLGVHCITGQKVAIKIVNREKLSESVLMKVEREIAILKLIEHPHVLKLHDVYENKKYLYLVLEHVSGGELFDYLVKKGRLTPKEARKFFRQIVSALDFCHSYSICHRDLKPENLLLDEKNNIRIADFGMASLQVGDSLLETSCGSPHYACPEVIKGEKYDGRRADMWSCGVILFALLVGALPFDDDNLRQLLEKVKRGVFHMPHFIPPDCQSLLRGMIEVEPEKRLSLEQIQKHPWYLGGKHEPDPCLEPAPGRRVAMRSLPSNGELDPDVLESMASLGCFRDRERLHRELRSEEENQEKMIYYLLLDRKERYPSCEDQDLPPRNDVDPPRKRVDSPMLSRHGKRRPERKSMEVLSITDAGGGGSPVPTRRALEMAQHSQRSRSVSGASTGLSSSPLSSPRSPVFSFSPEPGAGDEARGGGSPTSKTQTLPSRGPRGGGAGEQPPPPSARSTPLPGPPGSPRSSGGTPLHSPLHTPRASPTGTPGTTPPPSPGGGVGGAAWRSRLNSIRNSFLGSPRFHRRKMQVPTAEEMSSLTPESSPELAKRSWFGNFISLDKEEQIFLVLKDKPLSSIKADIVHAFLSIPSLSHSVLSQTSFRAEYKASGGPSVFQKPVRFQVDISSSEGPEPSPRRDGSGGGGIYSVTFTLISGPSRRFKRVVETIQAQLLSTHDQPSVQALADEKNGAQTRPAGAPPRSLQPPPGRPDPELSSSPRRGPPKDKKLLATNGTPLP
# [2] = biological target: Phosphorylase b kinase gamma catalytic chain, skeletal muscle/heart isoform (Homo sapiens) (UniProt Q16816); assay: Selectivity interaction (KinomeScan (DiscoverX)) EUB0000655a PHKG1; settings: at 10 µM
# [3] = biological target: T2, Cyclin-dependent kinase-like 5 (Homo sapiens) (UniProt O76039); assay: Selectivity interaction (KinomeScan (DiscoverX)) EUB0001079a CDKL5; settings: at 1 µM
# T2 sequence (whole entry): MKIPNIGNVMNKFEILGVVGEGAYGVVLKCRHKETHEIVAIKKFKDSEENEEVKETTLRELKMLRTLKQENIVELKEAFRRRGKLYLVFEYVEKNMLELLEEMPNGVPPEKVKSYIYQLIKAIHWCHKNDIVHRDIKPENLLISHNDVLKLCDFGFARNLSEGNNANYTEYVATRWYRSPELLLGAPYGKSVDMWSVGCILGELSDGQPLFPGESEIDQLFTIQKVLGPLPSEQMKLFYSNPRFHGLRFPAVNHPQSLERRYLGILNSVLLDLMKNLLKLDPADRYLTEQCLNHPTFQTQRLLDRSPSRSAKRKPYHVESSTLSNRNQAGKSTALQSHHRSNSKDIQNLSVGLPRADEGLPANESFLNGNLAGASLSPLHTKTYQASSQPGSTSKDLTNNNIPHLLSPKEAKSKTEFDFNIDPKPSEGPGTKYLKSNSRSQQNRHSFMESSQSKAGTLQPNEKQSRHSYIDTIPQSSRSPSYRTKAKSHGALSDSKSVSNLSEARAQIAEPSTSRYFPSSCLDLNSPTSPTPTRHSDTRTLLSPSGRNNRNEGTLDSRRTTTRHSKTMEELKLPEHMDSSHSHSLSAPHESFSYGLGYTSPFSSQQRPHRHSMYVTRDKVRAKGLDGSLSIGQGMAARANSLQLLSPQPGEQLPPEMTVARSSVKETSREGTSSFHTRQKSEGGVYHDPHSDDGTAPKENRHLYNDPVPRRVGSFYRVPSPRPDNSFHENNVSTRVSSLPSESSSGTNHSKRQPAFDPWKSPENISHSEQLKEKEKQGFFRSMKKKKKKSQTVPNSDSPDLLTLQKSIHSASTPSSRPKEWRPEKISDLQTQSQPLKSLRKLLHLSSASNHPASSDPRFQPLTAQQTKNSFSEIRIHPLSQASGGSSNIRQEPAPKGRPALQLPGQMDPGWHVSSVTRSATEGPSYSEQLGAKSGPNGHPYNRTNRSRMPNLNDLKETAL
# [4] = biological target: T3, Serine/threonine-protein kinase RIO3 (Homo sapiens) (UniProt O14730); assay: Selectivity interaction (KinomeScan (DiscoverX)) EUB0000607a RIOK3; settings: at 10 µM
# T3 sequence (whole entry): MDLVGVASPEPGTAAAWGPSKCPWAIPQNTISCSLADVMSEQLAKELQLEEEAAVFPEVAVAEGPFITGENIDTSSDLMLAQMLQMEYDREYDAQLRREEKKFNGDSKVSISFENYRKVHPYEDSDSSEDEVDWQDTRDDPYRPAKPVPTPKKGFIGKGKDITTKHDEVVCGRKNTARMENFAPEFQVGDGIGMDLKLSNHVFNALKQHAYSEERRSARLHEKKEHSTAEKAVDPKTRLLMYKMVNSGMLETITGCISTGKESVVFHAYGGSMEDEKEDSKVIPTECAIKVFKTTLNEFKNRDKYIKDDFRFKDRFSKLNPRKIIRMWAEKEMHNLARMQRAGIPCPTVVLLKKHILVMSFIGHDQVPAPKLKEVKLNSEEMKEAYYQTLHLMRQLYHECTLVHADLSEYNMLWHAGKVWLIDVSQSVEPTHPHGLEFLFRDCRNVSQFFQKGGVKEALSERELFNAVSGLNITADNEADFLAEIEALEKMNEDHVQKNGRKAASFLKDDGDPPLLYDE
# [5] = biological target: Histone-lysine N-methyltransferase SETD2 (Homo sapiens) (UniProt Q9BYW2); settings: at 1 µM
# Sequence of Histone-lysine N-methyltransferase SETD2 (Homo sapiens) (Q9BYW2 whole entry): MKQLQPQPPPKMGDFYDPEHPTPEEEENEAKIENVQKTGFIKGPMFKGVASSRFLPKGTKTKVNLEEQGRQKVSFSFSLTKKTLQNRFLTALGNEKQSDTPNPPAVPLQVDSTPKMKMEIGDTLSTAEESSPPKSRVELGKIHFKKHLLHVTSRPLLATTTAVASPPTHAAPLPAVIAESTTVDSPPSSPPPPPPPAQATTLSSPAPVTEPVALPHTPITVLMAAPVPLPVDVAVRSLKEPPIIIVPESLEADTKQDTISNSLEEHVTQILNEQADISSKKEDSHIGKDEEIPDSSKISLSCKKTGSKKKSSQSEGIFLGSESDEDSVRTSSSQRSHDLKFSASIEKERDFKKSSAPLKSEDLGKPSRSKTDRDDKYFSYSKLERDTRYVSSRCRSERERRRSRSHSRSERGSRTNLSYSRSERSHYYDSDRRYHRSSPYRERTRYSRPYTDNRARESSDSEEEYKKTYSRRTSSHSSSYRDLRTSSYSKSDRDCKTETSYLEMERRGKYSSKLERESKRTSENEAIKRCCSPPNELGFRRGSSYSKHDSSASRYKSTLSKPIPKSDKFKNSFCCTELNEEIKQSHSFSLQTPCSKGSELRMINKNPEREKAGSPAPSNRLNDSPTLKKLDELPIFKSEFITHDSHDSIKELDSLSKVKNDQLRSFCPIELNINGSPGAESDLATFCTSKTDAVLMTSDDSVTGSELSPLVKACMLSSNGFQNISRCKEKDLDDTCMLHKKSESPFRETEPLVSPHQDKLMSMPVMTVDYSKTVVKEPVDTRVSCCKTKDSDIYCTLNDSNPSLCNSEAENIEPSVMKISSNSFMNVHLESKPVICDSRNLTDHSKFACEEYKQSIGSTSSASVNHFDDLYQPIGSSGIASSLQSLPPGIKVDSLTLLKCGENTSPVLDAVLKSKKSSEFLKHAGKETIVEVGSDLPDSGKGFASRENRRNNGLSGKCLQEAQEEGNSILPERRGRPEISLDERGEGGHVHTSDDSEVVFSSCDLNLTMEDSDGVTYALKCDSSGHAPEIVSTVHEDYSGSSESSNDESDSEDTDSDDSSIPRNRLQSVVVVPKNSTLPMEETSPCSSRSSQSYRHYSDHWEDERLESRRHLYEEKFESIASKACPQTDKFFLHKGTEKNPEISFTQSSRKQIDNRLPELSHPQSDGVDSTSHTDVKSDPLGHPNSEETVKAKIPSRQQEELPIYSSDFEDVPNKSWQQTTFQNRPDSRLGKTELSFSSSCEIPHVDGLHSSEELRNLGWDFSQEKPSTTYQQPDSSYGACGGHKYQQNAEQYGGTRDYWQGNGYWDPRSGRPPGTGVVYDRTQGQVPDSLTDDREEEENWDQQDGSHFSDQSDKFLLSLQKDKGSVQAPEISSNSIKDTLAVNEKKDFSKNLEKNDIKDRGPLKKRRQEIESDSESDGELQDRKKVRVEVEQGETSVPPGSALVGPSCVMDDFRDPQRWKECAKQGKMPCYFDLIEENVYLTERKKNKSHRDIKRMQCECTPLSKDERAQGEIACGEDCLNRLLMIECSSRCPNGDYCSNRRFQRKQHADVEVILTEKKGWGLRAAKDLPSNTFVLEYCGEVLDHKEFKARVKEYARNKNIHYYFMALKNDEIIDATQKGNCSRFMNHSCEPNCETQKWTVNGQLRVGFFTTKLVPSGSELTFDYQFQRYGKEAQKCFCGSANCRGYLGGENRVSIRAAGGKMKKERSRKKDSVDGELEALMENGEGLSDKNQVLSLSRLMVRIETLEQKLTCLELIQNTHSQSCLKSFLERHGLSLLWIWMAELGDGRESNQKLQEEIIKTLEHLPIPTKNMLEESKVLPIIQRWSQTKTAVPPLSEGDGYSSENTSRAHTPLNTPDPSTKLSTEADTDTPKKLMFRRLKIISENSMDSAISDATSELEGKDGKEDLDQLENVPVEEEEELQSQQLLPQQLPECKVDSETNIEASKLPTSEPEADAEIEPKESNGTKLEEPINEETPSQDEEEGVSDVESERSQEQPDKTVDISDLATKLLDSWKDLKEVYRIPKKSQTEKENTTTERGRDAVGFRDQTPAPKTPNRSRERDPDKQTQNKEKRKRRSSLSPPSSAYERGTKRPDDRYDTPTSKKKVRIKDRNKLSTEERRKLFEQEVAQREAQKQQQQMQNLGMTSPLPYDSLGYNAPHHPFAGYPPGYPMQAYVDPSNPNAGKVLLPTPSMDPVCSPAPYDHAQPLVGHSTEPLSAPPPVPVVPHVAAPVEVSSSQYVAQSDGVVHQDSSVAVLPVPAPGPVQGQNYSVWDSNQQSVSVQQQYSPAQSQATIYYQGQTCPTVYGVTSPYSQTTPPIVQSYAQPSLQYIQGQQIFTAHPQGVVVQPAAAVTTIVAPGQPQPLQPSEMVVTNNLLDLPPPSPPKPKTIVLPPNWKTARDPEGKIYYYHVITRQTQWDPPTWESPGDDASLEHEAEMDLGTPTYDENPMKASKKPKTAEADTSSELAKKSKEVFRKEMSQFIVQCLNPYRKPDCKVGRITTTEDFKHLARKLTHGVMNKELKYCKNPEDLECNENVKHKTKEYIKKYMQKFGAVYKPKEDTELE
# Sequence of Phosphorylase b kinase gamma catalytic chain, skeletal muscle/heart isoform (Homo sapiens) (Q16816 whole entry, looked up, canonical isoform): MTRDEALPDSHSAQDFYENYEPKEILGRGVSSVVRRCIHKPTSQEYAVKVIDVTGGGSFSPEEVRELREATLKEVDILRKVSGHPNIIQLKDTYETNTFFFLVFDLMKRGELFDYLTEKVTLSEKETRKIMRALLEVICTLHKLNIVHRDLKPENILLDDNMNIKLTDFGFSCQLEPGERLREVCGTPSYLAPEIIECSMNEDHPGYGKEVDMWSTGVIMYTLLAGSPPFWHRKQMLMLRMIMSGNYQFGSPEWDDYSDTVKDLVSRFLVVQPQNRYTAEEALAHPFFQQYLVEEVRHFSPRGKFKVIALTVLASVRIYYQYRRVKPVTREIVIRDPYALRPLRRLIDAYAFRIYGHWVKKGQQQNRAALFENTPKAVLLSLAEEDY
compound,measurement,setting,value
Cc1ccc(-c2ccc3c(ccc4sc5c(c43)NC[C@@H](C)NC5=O)n2)cn1,% of inhibition,[1],80%
CN(C)CCOc1ccc(-c2nc(-c3ccncc3)c(-c3ccc4c(c3)CC/C4=N\O)[nH]2)cc1,% of control,[2],94%
Nc1cnc(N2CCc3cc(S(=O)(=O)Nc4c(F)cc(Cl)cc4F)cc(N4CCCC4=O)c32)nc1 [TP-020n],% of control,[3],88%
CNC(=O)Nc1ccc(-c2nc(N3CC4CCC(C3)O4)c3cnn(C4CCC5(CC4)OCCO5)c3n2)cc1,% of control,[4],100%
CNCCN1CCC(c2cc(CN(C)C(=O)c3cccc(Oc4ccccc4)c3)ccn2)CC1,% activity,[5],> 90%
